Measured values: patent US8232296B2, “Salt 628” (Astrazeneca AB, priority 2009, dated 2012)
Where a name gives a salt, the structure may show the parent alone.

Experiments:
[1] = Solid state stability study (LC and XRPD); format: physicochemical
Description: The solid state stability of compound (I) tosylate Form A was studied under four sets of conditions: at 25° C./desiccated; at 25° C./60% relative humidity (RH); 40° C./75% RH and 60° C./75% RH. Samples were examined (LC and XRPD) after 4, 8 and 12 weeks and chemical and physical stability were evaluated. […] It was concluded that compound (I) tosylate Form A has excellent and advantageous chemical and physical stability in the solid state under pharmaceutically relevant storage conditions.

[2] = Solubility of compound (I) tosylate in various dissolution media with time; format: physicochemical; conditions: thermodynamic from solid, 37° C.
Excerpt: Therefore compound (I) tosylate is expected to improve the aqueous solubility of compound (I) for a sufficient period of time to allow enhanced absorption in man. Without wishing to be limited by theory, the enhanced solubility of compound (I) tosylate may arise from a combination of the inherent higher solubility of the compound (I) tosylate, and a continued high solubility when the compound (I) precipitates from solution as amorphous material, in aqueous media. The observed improved solubility may therefore reflect both the solubility of the amorphous material and the solubility of the compound (I) tosylate, which will be present in-vivo in varying ratios following oral administration of compound (I) tosylate as a result of the kinetic balance between dissolution and precipitation of compound (I). […] In Table 2, the columns marked “modification” refer to the form of the solid present in the dissolution medium at the relevant time point indicated. The data in Table 2 indicate that the solubility remains high for at least 3 hours, particularly at low pH, representative of the pH found in the stomach.
Solubility was determined in 0.1 M HCl at pH 1.0, 0.2 M phosphate buffer at pH 3, 0.2 M phosphate buffer at pH 5.0, 0.2 M phosphate buffer at pH 6.5 and 0.2 M phosphate buffer at pH 8.
Typically about 4 mg of test sample was added to a 1 ml Scantec glass tube. The experiment was started on addition of 800 μl of preheated test media using an automated Tecon robot system (Genesis Freedom 150). Incubation was at 37° C., in a thermoblock, shaken at 600 rpm. Samples were withdrawn after 1 hour, 3 hours and 24 h, triplicate samples for each media. The supernatant liquid was withdrawn from samples and filtered using a Whatman GF/B filter and diluted prior to analysis by LC (Agilent 1100 series with X Terra MSC18 column). The remaining solid in the sample tubes was characterised using XRPD.

[3] = Dissolution in 900 ml of 0.1 M HCl (pH 1), USP apparatus 2; format: physicochemical; conditions: 79 mg (corresponding to 60 mg free base) alone in a capsule; 900 ml 0.1 M HCl, 75 rpm, 37° C.
Description: […] The dissolution was measured in 900 ml of 0.1 M HCl (pH 1) and using a USP dissolution apparatus 2 (paddle) at 75 rpm and 37° C. in a fully automated system, Zymark Multidose G3.
The dissolution profile of tablet formulations A and B in Table 7 were determined in 900 ml of 0.1 M HCl (pH 1) and using a USP dissolution apparatus 2 (paddle) at 75 rpm and 37° C. in a fully automated system, Zymark Multidose G3.

[4] = Solubility of salts of compound (I) after 1 hour in 0.1 M HCl (Zymark Multidose G3, UV 337 nm); conditions: after 1 hour in 900 ml of 0.1 M HCl, 75 rpm, 37° C.
Description: The solubility (mg/ml) shown in Table 1 was measured after 1 hour in 900 ml of 0.1 M HCl and at 75 rpm and 37° C. using a Zymark Multidose G3 system. Analysis was made by UV spectrophotometer with a detection wavelength of 337 nm.

[5] = Humidity sorption by gravimetrical vapour sorption (GVS); format: physicochemical; conditions: at 80% relative humidity (RH)
Description: As such, compound (I) tosylate Form A is right at the border between slightly hygroscopic and non hygroscopic, according to the criteria defined in the European Pharmacopoeia.
The gravimetric responses of test samples to changes in humidity were investigated using a SGA 100 (VTI Corporation) Gravimetrical Vapour Sorption (GVS) instrument with the following features:
Dry to 90% RH and back, in steps of, for example, 10% RH.
Equilibrium condition: <0.01 weight-% per 10 minutes (<0.001 weight-%/min)
Approximately 5 mg of the test sample was placed in the cup and evaluated.

[6] = Oral bioavailability study in the dog; format: in vivo, Beagle dogs; conditions: Beagle, plasma
Description: Beagle dogs (three dogs for each formulation) were administered orally with Compound (I) tosylate form A (dose equivalent to 1.0 mg/kg compound (I) free base) in a gelatine capsule or an aqueous suspension of 0.8 mg/kg crystalline compound (I) free base suspended in water together with 1.2% w/w Avicel and 0.1% w/w Polysorbate 80.
Accordingly the bioavailability of compound (I) tosylate Form A was about 3 times higher than the free base.

[7] = target: T1, Human Neutrophil Elastase (HNE) (Homo sapiens, UniProt P08246); test: Human Neutrophil Elastase Quenched-FRET assay; format: biochemical; conditions: free base dissolved in DMSO; n=26; read-out: IC50 for inhibition of human neutrophil elastase activity
T1 construct: Human Neutrophil Elastase (HNE) purified from serum (Calbiochem art. 324681); purchased Calbiochem 324681; host or cells: purified from serum (so in the source); natural human source, not recombinant
T1 sequence (P08246 30-247 limits assumed): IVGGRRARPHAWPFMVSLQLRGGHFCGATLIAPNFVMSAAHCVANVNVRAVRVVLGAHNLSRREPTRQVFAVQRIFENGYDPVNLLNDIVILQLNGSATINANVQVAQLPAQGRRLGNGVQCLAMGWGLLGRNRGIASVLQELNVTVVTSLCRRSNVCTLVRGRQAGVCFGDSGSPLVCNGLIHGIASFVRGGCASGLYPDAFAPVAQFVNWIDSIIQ
Description: The assay uses Human Neutrophil Elastase (HNE) purified from serum (Calbiochem art. 324681; Ref. Baugh, R. J. et al., 1976, Biochemistry. 15, 836-841). […] The protease substrate used was Elastase Substrate V Fluorogenic, MeOSuc-AAPV-AMC (Calbiochem art. 324740; Ref. Castillo, M. J. et al., 1979, Anal. Biochem. 99, 53-64). The substrate was stored in dimethyl sulfoxide (DMSO) at −20° C. The assay additions were as follows: Test compounds and controls were added to black 96-well flat-bottom plates (Greiner 655076), 1.0 μL in 100% DMSO, followed by 30 μL HNE in assay buffer with 0.01% Triton (trade mark) X-100 detergent. The assay buffer constitution was: 100 mM Tris(hydroxymethyl)aminomethane (TRIS) (pH 7.5) and 500 mM NaCl. The enzyme and the compounds were incubated at room temperature for 15 minutes. Then 30 μl substrate in assay buffer was added. The assay was incubated for 30 minutes at room temperature. The concentrations of HNE enzyme and substrate during the incubation were 1.7 nM and 100 μM, respectively. The assay was then stopped by adding 60 μl stop solution (140 mM acetic acid, 200 mM sodium monochloroacetate, 60 mM sodium acetate, pH 4.3). Fluorescence was measured on a Wallac 1420 Victor 2 instrument at settings: Excitation 380 nm, Emission 460 nm. IC50 values were determined using Xlfit curve fitting using model 205.

For `Cc1c(-c2ccnn2C)cc(C(=O)NCc2ccc(S(C)(=O)=O)cn2)c(=O)n1-c1cccc(C(F)(F)F)c1` [compound (I) tosylate Form A, 6-methyl-5-(1-methyl-1H-pyrazol-5-yl)-N-{[5-(methylsulfonyl)pyridin-2-yl]methyl}-2-oxo-1-[3-(trifluoromethyl)phenyl]-1,2-dihydropyridine-3-carboxamide 4-methylbenzenesulfonate], the “solid state chemical and physical stability” value ([1]; 25° C./desiccated, 25° C./60% RH, 40° C./75% RH, after 4, 8 and 12 weeks) was “no significant chemical or physical changes were observed”, the “solid state chemical and physical stability” value ([1]; stressed 60° C./75% RH condition, 4, 8 and 12 weeks) was “some potential chemical degradation” and the solubility at 1 h ([2]; aqueous buffer, 0.2 M Phosphate buffer pH 3.0, 1 h) was 493 ± 97 µM. For the same molecule, the solubility at 3 h ([2]; aqueous buffer, 0.2 M Phosphate buffer pH 3.0, 3 h) was 492 ± 115 µM, the solubility at 24 h ([2]; aqueous buffer, 0.2 M Phosphate buffer pH 3.0, 24 h) was 11.8 ± 0.9 µM and the solubility at 1 h ([2]; aqueous buffer, 0.2 M Phosphate buffer pH 5.0, 1 h) was 490 ± 42 µM. The solubility at 3 h ([2]; aqueous buffer, 0.2 M Phosphate buffer pH 5.0, 3 h) was 460 ± 54 µM, the solubility at 24 h ([2]; aqueous buffer, 0.2 M Phosphate buffer pH 5.0, 24 h) was 12.2 ± 0.6 µM and the solubility at 1 h ([2]; aqueous buffer, 0.2 M Phosphate buffer pH 6.5, 1 h) was 416 ± 48 µM. For the same molecule, the solubility at 3 h ([2]; aqueous buffer, 0.2 M Phosphate buffer pH 6.5, 3 h) was 363 ± 86 µM, the solubility at 24 h ([2]; aqueous buffer, 0.2 M Phosphate buffer pH 6.5, 24 h) was 10.1 ± 0.8 µM and the solubility at 1 h ([2]; aqueous buffer, 0.2 M Phosphate buffer pH 8, 1 h) was 412 ± 29 µM. For the same molecule, the solubility at 3 h ([2]; aqueous buffer, 0.2 M Phosphate buffer pH 8, 3 h) was 240 ± 35 µM, the solubility at 24 h ([2]; aqueous buffer, 0.2 M Phosphate buffer pH 8, 24 h) was 8.4 ± 0.7 µM and the solubility at 1 h ([2]; simulated gastric fluid, 0.1 M HCl pH 1.0, 1 h) was 1530 ± 129 µM. For the same molecule, the solubility at 3 h ([2]; simulated gastric fluid, 0.1 M HCl pH 1.0, 3 h) was 1100 ± 145 µM, the solubility at 24 h ([2]; simulated gastric fluid, 0.1 M HCl pH 1.0, 24 h) was 58.4 ± 1.2 µM and the “dissolved within 30 minutes” value [3] was less than 65%. For the same molecule, the “Solubility” value ([4]; 4-methylbenzenesulfonate) was 1200 µg/mL, the humidity uptake [5] was “around 0.2%” and the bioavailability ([6]; gelatine capsule, dose equivalent to 1.0 mg/kg compound (I) free base) was roughly 38%.

In the case of `Cc1c(-c2ccnn2C)cc(C(=O)NCc2ccc(S(C)(=O)=O)cn2)c(=O)n1-c1cccc(C(F)(F)F)c1` [compound (I), 6-methyl-5-(1-methyl-1H-pyrazol-5-yl)-N-{[5-(methylsulfonyl)pyridin-2-yl]methyl}-2-oxo-1-[3-(trifluoromethyl)phenyl]-1,2-dihydropyridine-3-carboxamide], the IC50 [7] is reported as 12 nM, the “Solubility” value ([4]; listed as Compound (I) free base) is reported as 40 µg/mL and the bioavailability ([6]; aqueous suspension of 0.8 mg/kg crystalline free base (1.2% w/w Avicel, 0.1% w/w Polysorbate 80)) is reported as roughly 12%.
